US20260256792A1, “TREATMENT OF CHRONIC SPONTANEOUS URTICARIA BY ADMINISTERING (R)-2-[3-[4-AMINO-3-(2-FLUORO-4-PHENOXY-PHENYL)PYRAZOLO[3,4-D]PYRIMIDIN-1-YL]PIPERIDINE-1-CARBONYL]-4-METHYL-4-[4-(OXETAN-3-YL)PIPERAZIN-1-YL]PENT-2-ENENITRILE” (priority 2023, published 2026)

Test system: moderate-to-severe chronic spontaneous urticaria (CSU)
Assay: Phase 2 CSU study: urticaria activity score over 7 days (UAS7)
Type: in vivo, human
Details: Omalizumab-Naïve
Text: The study comprises a 12 week, randomized, double-blind, placebo-controlled, multi-center, dose-ranging efficacy and safety phase, followed by a 40 week open label extension (OLE) phase (see FIG. 1). The study consists of three phases and an optional OLE phase. […] Clinically, CSU is characterized by the spontaneous and recurrent appearance of pruritic hives. The proposed primary endpoints were the UAS7 at Week 12 in EU and EU reference countries and the ISS7 in the US. Regardless of where a participant was from, all assessments were the same. The UAS7 score is a composite score containing both the HSS7 and the ISS7. This allowed a global assessment of the two key components of urticaria: hives and itch. […] The UAS is a validated PRO measure. […] The daily UAS scores range from 0 to 6 point/day. […] Patients were to complete the UAS using the e-diary. […] The following secondary endpoints were to be analyzed using the same approach as for the primary endpoint: • Change from baseline in UAS7 at Week 4 • Change from baseline in UAS7 at Week 12 (for US and US reference countries) • Change from baseline in ISS7 at Week 12 (except US and US reference countries) • Change from baseline in HSS7 at Week 12 The following responder secondary endpoints were to be analyzed using the Cochran-Mantel-Haenszel test adjusted by region: • Proportion of participants with UAS7<6 at Week 12 • Proportion of participants with UAS7=0 at Week 12 Participants who received selected prohibited medications and/or rescue medications were to be considered as non-responders for time points after the medication usage. For other participants, all available data including those collected during the off-treatment period were to be used to determine the responder/non-responder status. Missing data were to be considered as non-responders.

[1] = Baseline Eosinophils (10^9/L) ≥0.3, 400 mg BID
[2] = Baseline Eosinophils (10^9/L) ≥0.3, 400 mg QPM
[3] = Baseline Eosinophils (10^9/L) ≥0.3, 400 mg TID
[4] = Baseline H1-antihistamines dose 1-fold, 400 mg BID
[5] = Baseline H1-antihistamines dose 1-fold, 400 mg QPM
[6] = Baseline H1-antihistamines dose 1-fold, 400 mg TID
[7] = Baseline H1-antihistamines dose 2 to 4-fold standard dose, 400 mg BID
[8] = Baseline H1-antihistamines dose 2 to 4-fold standard dose, 400 mg QPM
[9] = Baseline H1-antihistamines dose 2 to 4-fold standard dose, 400 mg TID
[10] = Baseline ISS7 score <13, 400 mg BID
[11] = Baseline ISS7 score <13, 400 mg QPM
[12] = Baseline ISS7 score <13, 400 mg TID
[13] = Baseline ISS7 score ≥13, 400 mg BID
[14] = Baseline ISS7 score ≥13, 400 mg QPM
[15] = Baseline ISS7 score ≥13, 400 mg TID
[16] = Baseline Total IgE (IU/mL) <100, 400 mg BID
[17] = Baseline Total IgE (IU/mL) <100, 400 mg QPM
[18] = Baseline Total IgE (IU/mL) <100, 400 mg TID
[19] = Baseline Total IgE (IU/mL) <300, 400 mg BID
[20] = Baseline Total IgE (IU/mL) <300, 400 mg QPM
[21] = Baseline Total IgE (IU/mL) <300, 400 mg TID
[22] = Baseline Total IgE (IU/mL) ≥100, 400 mg BID
[23] = Baseline Total IgE (IU/mL) ≥100, 400 mg QPM
[24] = Baseline Total IgE (IU/mL) ≥100, 400 mg TID

## CC(C)(C=C(C#N)C(=O)N1CCC[C@@H](n2nc(-c3ccc(Oc4ccccc4)cc3F)c3c(N)ncnc32)C1)N1CCN(C2COC2)CC1 [rilzabrutinib, (R)-2-[3-[4-amino-3-(2-fluoro-4-phenoxy-phenyl)pyrazolo[3,4-d]pyrimidin-1-yl]piperidine-1-carbonyl]-4-methyl-4-[4-(oxetan-3-yl)piperazin-1-yl]pent-2-enenitrile]
Baseline Eosinophils (10^9/L) ≥0.165 (Median), 400 mg TID
  Change from Baseline in UAS7 at Week 12: Mean (SD): −16.50 (9.30)
[1]
  Change from Baseline in UAS7 at Week 12: LS Mean Diff vs. placebo (95% CI): −3.40 (−16.66, 9.86)
  Change from Baseline in UAS7 at Week 12: Mean (SD): −13.11 (12.32)
[2]
  Change from Baseline in UAS7 at Week 12: LS Mean (SE): −9.66 (4.84)
  Change from Baseline in UAS7 at Week 12: LS Mean Diff vs. placebo (95% CI): −2.00 (−16.22, 12.21)
  Change from Baseline in UAS7 at Week 12: Mean (SD): −9.69 (12.55)
[3]
  Change from Baseline in UAS7 at Week 12: LS Mean (SE): −13.16 (4.09)
  Change from Baseline in UAS7 at Week 12: LS Mean Diff vs. placebo (95% CI): −5.51 (−18.58, 7.57)
  Change from Baseline in UAS7 at Week 12: Mean (SD): −14.65 (7.48)
[4]
  Change from Baseline in UAS7 at Week 12: LS Mean (SE): −15.75 (3.11)
  Change from Baseline in UAS7 at Week 12: LS Mean Diff vs. placebo (95% CI): −3.48 (−11.69, 4.73)
  Change from Baseline in UAS7 at Week 12: Mean (SD): −18.22 (14.88)
[5]
  Change from Baseline in UAS7 at Week 12: LS Mean (SE): −7.64 (2.73)
  Change from Baseline in UAS7 at Week 12: LS Mean Diff vs. placebo (95% CI): 4.64 (−2.96, 12.23)
  Change from Baseline in UAS7 at Week 12: Mean (SD): −8.61 (9.50)
[6]
  Change from Baseline in UAS7 at Week 12: LS Mean (SE): −14.92 (2.59)
  Change from Baseline in UAS7 at Week 12: LS Mean Diff vs. placebo (95% CI): −2.65 (−10.05, 4.76)
[7]
  Change from Baseline in UAS7 at Week 12: LS Mean (SE): −12.98 (2.55)
  Change from Baseline in UAS7 at Week 12: LS Mean Diff vs. placebo (95% CI): −6.42 (−13.94, 1.10)
[8]
  Change from Baseline in UAS7 at Week 12: LS Mean (SE): −10.93 (2.77)
  Change from Baseline in UAS7 at Week 12: LS Mean Diff vs. placebo (95% CI): −4.37 (−12.30, 3.56)
  Change from Baseline in UAS7 at Week 12: Mean (SD): −12.81 (9.00)
[9]
  Change from Baseline in UAS7 at Week 12: LS Mean (SE): −20.96 (3.15)
  Change from Baseline in UAS7 at Week 12: LS Mean Diff vs. placebo (95% CI): −14.41 (−22.75, −6.07)
  Change from Baseline in UAS7 at Week 12: Mean (SD): −24.73 (10.10)
[10]
  Change from Baseline in UAS7 at Week 12: LS Mean (SE): −9.30 (4.02)
  Change from Baseline in UAS7 at Week 12: LS Mean Diff vs. placebo (95% CI): −4.39 (−14.52, 5.74)
  Change from Baseline in UAS7 at Week 12: Mean (SD): −10.78 (8.33)
[11]
  Change from Baseline in UAS7 at Week 12: LS Mean (SE): −3.27 (5.21)
  Change from Baseline in UAS7 at Week 12: LS Mean Diff vs. placebo (95% CI): 1.64 (−10.30, 13.58)
  Change from Baseline in UAS7 at Week 12: Mean (SD): −5.83 (3.06)
[12]
  Change from Baseline in UAS7 at Week 12: LS Mean (SE): 9.24 (6.48)
  Change from Baseline in UAS7 at Week 12: LS Mean Diff vs. placebo (95% CI): −4.33 (−18.30, 9.63)
  Change from Baseline in UAS7 at Week 12: Mean (SD): −10.75 (6.01)
[13]
  Change from Baseline in UAS7 at Week 12: LS Mean (SE): −15.07 (2.33)
  Change from Baseline in UAS7 at Week 12: LS Mean Diff vs. placebo (95% CI): −4.32 (−10.91, 2.27)
  Change from Baseline in UAS7 at Week 12: Mean (SD): −15.60 (12.97)
[14]
  Change from Baseline in UAS7 at Week 12: LS Mean Diff vs. placebo (95% CI): 0.28 (−6.08, 6.64)
  Change from Baseline in UAS7 at Week 12: Mean (SD): −10.91 (9.59)
[15]
  Change from Baseline in UAS7 at Week 12: LS Mean (SE): −18.70 (2.15)
  Change from Baseline in UAS7 at Week 12: LS Mean Diff vs. placebo (95% CI): −7.95 (−14.32, −1.57)
[16]
  Change from Baseline in UAS7 at Week 12: LS Mean (SE): −15.72 (3.24)
  Change from Baseline in UAS7 at Week 12: LS Mean Diff vs. placebo (95% CI): −8.43 (−17.18, 0.33)
  Change from Baseline in UAS7 at Week 12: Mean (SD): −16.26 (11.38)
[17]
  Change from Baseline in UAS7 at Week 12: LS Mean (SE): 8.49 (3.25)
  Change from Baseline in UAS7 at Week 12: LS Mean Diff vs. placebo (95% CI): −1.19 (−10.05, 7.67)
[18]
  Change from Baseline in UAS7 at Week 12: LS Mean (SE): −17.40 (3.01)
  Change from Baseline in UAS7 at Week 12: LS Mean Diff vs. placebo (95% CI): −10.10 (−18.54, −1.65)
  Change from Baseline in UAS7 at Week 12: Mean (SD): −21.03 (13.37)
[19]
  Change from Baseline in UAS7 at Week 12: LS Mean (SE): −14.78 (2.46)
  Change from Baseline in UAS7 at Week 12: LS Mean Diff vs. placebo (95% CI): −6.72 (−13.41, −0.03)
  Change from Baseline in UAS7 at Week 12: Mean (SD): 15.35 (12.23)
[20]
  Change from Baseline in UAS7 at Week 12: LS Mean (SE): −9.07 (2.38)
  Change from Baseline in UAS7 at Week 12: LS Mean Diff vs. placebo (95% CI): −1.01 (−7.60, 5.59)
  Change from Baseline in UAS7 at Week 12: Mean (SD): −10.61 (9.62)
[21]
  Change from Baseline in UAS7 at Week 12: LS Mean (SE): −18.19 (2.47)
  Change from Baseline in UAS7 at Week 12: LS Mean Diff vs. placebo (95% CI): −10.13 (−16.83, −3.44)
  Change from Baseline in UAS7 at Week 12: Mean (SD): −20.66 (12.39)
[22]
  Change from Baseline in UAS7 at Week 12: LS Mean (SE): −13.17 (2.55)
  Change from Baseline in UAS7 at Week 12: LS Mean Diff vs. placebo (95% CI): −1.67 (−8.84, 5.51)
  Change from Baseline in UAS7 at Week 12: Mean (SD): −13.19 (12.80)
[23]
  Change from Baseline in UAS7 at Week 12: LS Mean (SE): −8.97 (2.49)
  Change from Baseline in UAS7 at Week 12: LS Mean Diff vs. placebo (95% CI): 2.53 (−4.52, 9.59)
  Change from Baseline in UAS7 at Week 12: Mean (SD): −9.90 (9.51)
[24]
  Change from Baseline in UAS7 at Week 12: LS Mean (SE): −17.08 (2.69)
  Change from Baseline in UAS7 at Week 12: LS Mean Diff vs. placebo (95% CI): −5.57 (−12.83, 1.69)
